Assay results as given in US7037644B1, “Means and methods for monitoring non-nucleoside reverse transcriptase inhibitor antiretroviral therapy and guiding therapeutic decisions in the treatment of HIV/AIDS” (ViroLogic, Inc., priority 1998, dated 2006).
Several values for one entry are separate records, joined by “and”; a condition that tells them apart may be missing. Equal values may be shown once. Entries after “also recorded” stand apart in the source; their conditions may differ.

How the values were obtained:
Format in all cases: cell-based, HIV-1
Y188C-RTV = assay: Phenotypic susceptibility assay (site directed mutant RTV); details: Y188C alone
Text: (§1) The resistance test vectors containing a functional luciferase gene cassette were constructed and host cells were transfected with the resistance test vector DNA. The resistant test vectors contained patient-derived reverse transcriptase and protease sequences that were either susceptible or resistant to the antiretroviral agents, such as nucleoside reverse transcriptase inhibitors, non-nucleoside reverse transcriptase inhibitors and protease inhibitors. The resistance test vector viral particles produced by transfecting the resistance test vector DNA into host cells, either in the presence or absence of protease inhibitors, were used to infect target host cells grown either in the absence of NRTI or NNRTI or in the presence of increasing concentrations of the drug. The amount of luciferase activity produced in infected target host cells in the presence of drug was compared to the amount of luciferase produced in infected target host cells in the absence of drug. […] The IC50 values were determined by plotting percent drug inhibition vs. log10 drug concentration.
(§2) Host cells were seeded in 10-cm-diameter dishes and were transfected several days after plating with resistance test vector plasmid DNA and the envelope expression vector. […] HIV capsid protein (p24) levels in the harvested cell culture media were determined by an EIA method as described by the manufacturer (SIAC; Frederick, Md.). […] The inhibitory effect of the drug was determined using the following equation: % luciferase inhibition=1−(RLUluc [drug]÷RLUluc)×100 where RLUluc [drug] is the relative light unit of luciferase activity in infected cells in the presence of drug and RLUluc is the Relative Light Unit of luciferase activity in infected cells in the absence of drug. […]
The Y188C mutation was introduced into the resistance test vector using the mega-primer method for site-directed mutagenesis (Sakar and Sommar, Ibid.). […] We determined the pattern of phenotypic susceptibility to the NNRTIs., delavirdine, nevirapine and efavirenz, in the Y188C-RTV.

Y181C-A98G-RTV = assay: as above; details: for loss of susceptibility (fold, IC50) vs wild type control RTV: Y181C and A98G; for change in susceptibility: mutations at codons 181 and 98
Text: (§3) The resistance test vectors containing a functional luciferase gene cassette were constructed and host cells were transfected with the resistance test vector DNA. The resistant test vectors contained patient-derived reverse transcriptase and protease sequences that were either susceptible or resistant to the antiretroviral agents, such as nucleoside reverse transcriptase inhibitors, non-nucleoside reverse transcriptase inhibitors and protease inhibitors. The resistance test vector viral particles produced by transfecting the resistance test vector DNA into host cells, either in the presence or absence of protease inhibitors, were used to infect target host cells grown either in the absence of NRTI or NNRTI or in the presence of increasing concentrations of the drug. The amount of luciferase activity produced in infected target host cells in the presence of drug was compared to the amount of luciferase produced in infected target host cells in the absence of drug. Drug resistance was measured as the amount of drug required to inhibit by 50% the luciferase activity detected in the absence of drug (inhibitory concentration 50%, IC50). The IC50 values were determined by plotting percent drug inhibition vs. log10 drug concentration.
(§4) Host cells were seeded in 10-cm-diameter dishes and were transfected several days after plating with resistance test vector plasmid DNA and the envelope expression vector. Transfections were performed using a calcium-phosphate precipitation procedure. The cell culture media containing the DNA precipitate was replaced with fresh medium, from one to 24 hours, after transfection. Cell culture media containing resistance test vector viral particles was harvested one to four days after transfection and was passed through a […] filter before being stored at […]. HIV capsid protein (p24) levels in the harvested cell culture media were determined by an EIA method as described by the manufacturer (SIAC; Frederick, Md.). Before infection, target cells (293 and 293/T) were plated in cell culture media. Control infections were performed using cell culture media from mock transfections (no DNA) or transfections containing the resistance test vector plasmid DNA without the envelope expression plasmid. One to three or more days after infection the media was removed and cell lysis buffer (Promega) was added to each well. Cell lysates were assayed for luciferase activity (FIG. 3). The inhibitory effect of the drug was determined using the following equation: % luciferase inhibition=1−(RLUluc [drug]÷RLUluc)×100 where RLUluc [drug] is the relative light unit of luciferase activity in infected cells in the presence of drug and RLUluc is the Relative Light Unit of luciferase activity in infected cells in the absence of drug. IC50 values were obtained from the sigmoidal curves that were generated from the data by plotting the percent inhibition of luciferase activity vs. the log10 drug concentration. The drug inhibition curves are shown in (FIG. 3).
The Y181C and A98G mutations were introduced alone and in combination into resistance test vectors using the mega-primer method for site-directed mutagenesis (Sakar and Sommar, Ibid.). Resistance test vectors containing the Y181C mutation (Y181C-RTV) and the A98G mutation (A98G-RTV) and both mutations (Y181C-A98G-RTV) were then tested using the phenotypic assay described earlier and the results were compared to those determined using a genetically defined resistance test vector that was wild type at position 181 and 98. We determined the pattern of phenotypic susceptibility to the NNRTIs, delavirdine, neviraphine and efavirenz, in the three vectors.

[1] = system: RTV-1060, patient 98-1060 (RT K101E, G190S); assay: Phenotypic susceptibility assay (patient RTV); details: patient RTV pool
Text: as §1, §2
A resistance test vector was constructed as described in Example 1 from a patient sample designated 98-644. […] RTV-644 and RTV-1060 were then tested in a phenotypic, assay to determine accurately and quantitatively the level of susceptibility to a panel of anti-retroviral drugs. […]

V106A-F227-RTV = assay: Phenotypic susceptibility assay (site directed mutant RTV); details: for loss of susceptibility (fold, IC50) vs wild type control RTV: V106A and F227L; for change in susceptibility: mutations at 106 and 227
Text: as §3, §4
(§5) The mutations V106A, V189L, V181C an F227L were introduced alone and in combination into resistance test vectors using the mega-primer method for site-directed mutagenesis (Sakar and Sommar, Ibid.). Resistance test vectors containing the V106A mutation (V106A-RTV), the V189L mutation (V189L-RTV), the V181C mutation (V181C-RTV) and E227L mutation (F2271-RTV) and two mutations (V106A-Y181C-RTV) and (V106A-V189L-RTV) and (V106A-F227-RTV) and (V181C-F227-RTV) and three mutations, (V106A-Y181C-F227L-RTV) were then tested using the phenotypic assay described earlier and the results were compared to those determined using a genetically defined resistance test vector that was wild type at positions 106, 189, 181 and 227. We determined the pattern of phenotypic susceptibility to the NNRTIs, delavirdine, nevirapine and efavirenz, in all nine vectors.

V106A-RTV = assay: as above; details: V106A alone
Text: as §3, §4, §5

V189L-RTV = assay: as above; details: V189L alone
Text: as §3, §4, §5

F227L-RTV = assay: as above; details: F227L alone; below 1 = increased susceptibility
Text: as §3, §4, §5

V106A-Y181C-RTV = assay: as above; details: for loss of susceptibility (fold, IC50) vs wild type control RTV: V106A and Y181C; for change in susceptibility: mutations at 106 and 181
Text: as §3, §4, §5

V106A-V189L-RTV = assay: as above; details: for change in susceptibility (fold, IC50) vs wild type control RTV: V106A and V189L; for change in susceptibility: mutations at 106 and 189
Text: as §3, §4, §5

V106A-Y181C-F227L-RTV = assay: as above; details: for loss of susceptibility (fold, IC50) vs wild type control RTV: V106A, Y181C and F227L; for change in susceptibility: mutations at 106 and 181 and 227
Text: as §3, §4, §5

Structure (SMILES)	loss of susceptibility (fold, IC50) vs wild type control RTV (Y188C-RTV) [fold]	loss of susceptibility (fold, IC50) vs wild type control RTV (Y181C-A98G-RTV)	change in susceptibility (Y181C-A98G-RTV)	decrease in susceptibility (fold, IC50) [1]	loss of susceptibility (fold, IC50) vs wild type control RTV (V106A-F227-RTV)	change in susceptibility (V106A-F227-RTV)	change in susceptibility (fold, IC50) vs wild type control RTV (V106A-RTV) [fold]	change in susceptibility (fold, IC50) vs wild type control RTV (V189L-RTV) [fold]	change in susceptibility (fold, IC50) vs wild type control RTV (F227L-RTV)	loss of susceptibility (fold, IC50) vs wild type control RTV (V106A-Y181C-RTV)	change in susceptibility (V106A-Y181C-RTV)	change in susceptibility (fold, IC50) vs wild type control RTV (V106A-V189L-RTV) [fold]	change in susceptibility (V106A-V189L-RTV)	loss of susceptibility (fold, IC50) vs wild type control RTV (V106A-Y181C-F227L-RTV)	change in susceptibility (V106A-Y181C-F227L-RTV)
CC(C)Nc1cccnc1N1CCN(C(=O)c2cc3cc(NS(C)(=O)=O)ccc3[nH]2)CC1 [delavirdine]	3	240 fold	significant decrease	1.5 fold	3 fold	slight decrease	5	1.8	0.03 fold	100 fold	significant decrease	3	slight decrease; also recorded: alight decrease	50 fold	moderate decrease
O=C1Nc2ccc(Cl)cc2[C@@](C#CC2CC2)(C(F)(F)F)O1 [efavirenz]	20	7 fold	substantial decrease; also recorded: slight decrease	900 fold	8 fold	slight decrease	1.7	1.3	0.48 fold and 0.4 fold	4 fold	slight decrease	1	no change	12 fold	slight decrease
Cc1ccnc2c1NC(=O)c1cccnc1N2C1CC1 [nevirapine]	30	greater than 800 fold	substantial decrease	greater than 800 fold	greater than 800 fold	substantial decrease	60	1.3	3 fold	greater than 800 fold	substantial decrease	50	moderate decrease	greater than 800 fold	substantial decrease
